Values after ≈ are worked out from the molar mass of the structure shown. Values joined by “and” are separate entries in the source; they are usually repeats but may differ in a detail not shown here. Equal values may be shown once. Read-outs that look alike come from different tables or passages of the source.
Key:
[1] = system: Alternaria kikuchiana; assay: microbe, parasite or virus in culture; format: cell-based
[2] = system: Botrytis cinerea; assay: microbe, parasite or virus in culture; format: cell-based
[3] = system: Colletotrichum lagenarium; assay: microbe, parasite or virus in culture; format: cell-based; conditions: Colletotrichum orbiculare
[4] = system: Fusarium oxysporum; assay: microbe, parasite or virus in culture; format: cell-based
[5] = system: Magnaporthe grisea; assay: microbe, parasite or virus in culture; format: cell-based; conditions: Pyricularia oryzae
[6] = system: Pythium ultimum; assay: microbe, parasite or virus in culture; format: cell-based; conditions: Globisporangium ultimum
[7] = system: Rhizoctonia solani; assay: microbe, parasite or virus in culture; format: cell-based
[8] = system: Magnaporthe grisea; format: in vivo; conditions: RCB rice blast, infected leaf area after 7 days
[9] = system: Corticium sasaki; format: in vivo; conditions: after 8 days
[10] = system: Phytophthora infestans; format: in vivo; conditions: for In vivo control values: TLB tomato late blight, after 4 days
[11] = system: Puccinia recondita; format: in vivo
[12] = Acute toxicity test, oral, mice; format: in vivo; conditions: male, mouse, in vivo, ICR mice, single administration, 7 days observation
Description: (§1) To perform an acute toxicity test of Chloranthus henryi extract and the sesquiterpene compound of formula (1), 6-week-old ICR mice (♂, 25 g, Korean Bio Corp.) were divided into 4 groups with two mice per each group, and raised under the condition of 22±3° C., 55±10% (humidity), 12L/12D (intensity of illumination). The mice were adapted for 1 week, and freely fed with foods for test animals (Jeil Feed Corp., Korea, for mouse and rat) and sterilized water.
(§2) Chloranthus henryi extract and the sesquiterpene compound of formula (1) were dissolved in a small amount of dimethyl sulfoxide (DMSO), and diluted with 1% carboxylmethyl cellulose. Four groups of mice were orally administered with 540 mg/kg, 180 mg/kg, 60 mg/kg and 20 mg/kg, respectively. Control group was administered with 1% carboxylmethyl cellulose. For 7 days after the administration, the presence of side effects or mortality was observed as follows. […] The changes in clinical signs and mortality of animals after administration were observed twice everyday for 7 days, i.e., in the morning and in the afternoon.
(§3) Further, the internal organs of the dead mice were examined through macroscopic observation after necropsy on the 7th day. The change in body weight of animals by Chloranthus henryi extract and sesquiterpene compound of formula (1) was observed everyday after administration.

[13] = system: ICR mice; assay: Acute toxicity test, oral, mice; format: in vivo
Description: as §1, §2, §3

C/C=C(\C)C(=O)OC[C@]1(O)[C@H]2C[C@H]2[C@]2(C)[C@@H]3CC4=C5[C@H](/C(=C(\C)C(=O)OC)C(=O)[C@H](O)[C@@]5(C)[C@@H]5C[C@H]45)[C@@]34OC(=O)C(COC(C)=O)=C4C[C@@H]12 [CHE-23C]
MIC [1]: 8 µg/mL (≈ 11.8 µM)
MIC [2]: 8 µg/mL (≈ 11.8 µM)
MIC [3]: 8 µg/mL (≈ 11.8 µM)
MIC [4]: 16 µg/mL (≈ 23.6 µM)
MIC [5]: 4 µg/mL (≈ 5.91 µM)
MIC [6]: 1 µg/mL (≈ 1.48 µM)
MIC [7]: 16 µg/mL (≈ 23.6 µM)
In vivo control values ([8]; 11 ppm spray): 67%
In vivo control values ([8]; 33 ppm spray): 50%
In vivo control values ([8]; 100 ppm spray): 72%
In vivo control values [9]: 69% and 50%
control values in the greenhouse experiments (in words) ([10]; Phytophthora infestans, greenhouse): potent control values
In vivo control values ([10]; 11 ppm spray): 29%
In vivo control values ([10]; 33 ppm spray): 91%
In vivo control values ([10]; 100 ppm spray): 93%
In vivo control values ([11]; after 7 days): 100% and 87% and 80%
control values in the greenhouse experiments (in words) ([11]; in vivo): potent control values
LD50 at 7 days [12]: > 540 mg/kg
mortality in the maximum dosage group ([13]; 540 mg/kg, 7 days): all the mice in the maximum dosage group (540 mg/kg) survived
gross findings caused by the test materials ([13]; 20-540 mg/kg, all treated groups, necropsy on the 7th day): no significant gross findings

— patent US7491415B2 (priority 2005, dated 2009)
